# Test results as given in patent US7544707B2, “Bicyclic derivatives as PPAR modulators” (Eli Lilly and Company, priority 2003, dated 2009).
row,SMILES,melting point
1,"CC(C)(Oc1ccc(SCc2ccc3cn(-c4ccc(C(F)(F)F)cc4)nc3c2)cc1)C(=O)O [Example 54, 2-Methyl-2-{4-[2-(4-trifluoromethylphenyl)-2H-indazol-6-ylmethylsulfanyl]phenoxy}propionic Acid]",176 to 178 °C
2,"CC(Oc1ccc(SC(C)(C)C(=O)O)cc1)c1cccc2cn(-c3ccc(C(F)(F)F)cc3)nc12 (racemic) [Example 43, (+/−)-2-Methyl-2-(4-{1-[2-(4-trifluoromethylphenyl)-2H-indazol-7-yl]ethoxy}phenylsulfanyl)propionic Acid]",158 to 160 °C
3,"CC(C)(Oc1ccc(SCc2ccc3nn(-c4ccc(C(F)(F)F)cc4)cc3c2)cc1)C(=O)O [Example 63, 2-Methyl-2-{4-[2-(4-trifluoromethylphenyl)-2H-indazol-5-ylmethylsulfanyl]phenoxy}propionic Acid]",159 to 161 °C
4,"Cc1cc(OCc2cccc3c2cnn3-c2ccc(C(F)(F)F)cc2)ccc1OC(C)(C)C(=O)O [Example 77, 2-Methyl-2-{2-methyl-4-[1-(4-trifluoromethylphenyl)-1H-indazol-4-ylmethoxy]phenoxy}propionic Acid]",100 to 104 °C
5,"Cc1cc(SCc2cccc3cn(-c4ccc(C(F)(F)F)cc4)nc23)ccc1OCC(=O)O [Example 1, 2-Methyl-4-[2-(4-trifluoromethylphenyl)-2H-indazol-7-ylmethylsulfanyl]phenoxyacetic Acid]",79 to 81 °C
6,"CCc1cc(SC(C)(C)c2cccc3cn(-c4ccc(C(F)(F)F)cc4)nc23)ccc1OCC(=O)O [Example 16, 2-Ethyl-4-{1-methyl-1-[2-(4-trifluoromethylphenyl)-2H-indazol-7-yl]ethylsulfanyl}phenoxyacetic Acid]",114 to 116 °C
7,"Cc1cc(OCCc2cccc3cn(-c4ccc(C(F)(F)F)cc4)nc23)ccc1OC(C)(C)C(=O)O [Example 48, 2-Methyl-2-(2-methyl-4-{2-[2-(4-trifluoromethylphenyl)-2H-indazol-7-yl]ethoxy}phenoxy)propionic Acid]",133 to 135 °C
8,"CCc1cc(SCc2cccc3cn(-c4ccc(C(F)(F)F)cc4)nc23)ccc1OCC(=O)O [Example 3, 2-Ethyl-4-[2-(4-trifluoromethylphenyl)-2H-indazol-7-ylmethylsulfanyl]phenoxyacetic Acid]",159 to 161 °C
9,"CC(Sc1ccc(OC(C)(C)C(=O)O)cc1)c1ccc2nn(-c3ccc(C(F)(F)F)cc3)cc2c1 (racemic) [Example 68, (+/−)-2-Methyl-2-(4-{1-[2-(4-trifluoromethylphenyl)-2H-indazol-5-yl]ethylsulfanyl}phenoxy)propionic Acid]",109 to 111 °C
10,"Cc1cc(OCc2ccc3cn(-c4ccc(C(F)(F)F)cc4)nc3c2)ccc1OC(C)(C)C(=O)O [Example 51, 2-Methyl-2-{2-methyl-4-[2-(4-trifluoromethylphenyl)-2H-indazol-6-ylmethoxy]phenoxy}propionic Acid]",119 to 121 °C
11,"Cc1cc(OC(C)c2ccc3cn(-c4ccc(C(F)(F)F)cc4)nc3c2)ccc1OC(C)(C)C(=O)O (racemic) [Example 57, (+/−)-2-Methyl-2-(2-methyl-4-{1-[2-(4-trifluoromethylphenyl)-2H-indazol-6-yl]ethoxy}phenoxy)propionic Acid]",156 to 158 °C
12,"Cc1cc(SC(C)c2cccc3cn(-c4ccc(C(F)(F)F)cc4)nc23)ccc1OC(C)(C)C(=O)O (racemic) [Example 41, (+/−)-2-Methyl-2-(2-methyl-4-{1-[2-(4-trifluoromethylphenyl)-2H-indazol-7-yl]ethylsulfanyl}phenoxy)propionic Acid]",140 to 142 °C
13,"Cc1cc(OC(C)c2cccc3cn(-c4ccc(C(F)(F)F)cc4)nc23)ccc1CCC(=O)O (racemic) [Example 12, (+/−)-3-(2-Methyl-4{1-[2-(4-trifluoromethylphenyl)-2H-indazol-7yl]ethoxy}phenyl)propionic Acid]",66 to 68 °C
14,"Cc1cc(OCc2cccc3cn(-c4ccc(C(F)(F)F)cc4)nc23)ccc1CCC(=O)O [Example 6, 3-{2-Methyl-4-[2-(4-trifluoromethylphenyl)-2H-indazol-7-ylmethoxy]phenyl}propionic Acid]",133 to 135 °C
15,"CC(C)(Sc1ccc(OCc2cccc3cn(-c4ccc(C(F)(F)F)cc4)nc23)cc1)C(=O)O [Example 38, 2-Methyl-2-{4-[2-(4-trifluoromethylphenyl)-2H-indazol-7-ylmethoxy]phenylsulfanyl}propionic Acid]",175 to 177 °C
16,"O=C(O)Cc1csc2cc(OCc3ccc4cn(-c5ccc(C(F)(F)F)cc5)nc4c3)ccc12 [Example 25, {6-[2-(4-Trifluoromethylphenyl)-2H-indazol-6-ylmethoxy]benzo[b]thiophen-3-yl}acetic Acid]",240 to 242 °C
17,"CCc1cc(SC(C)c2cccc3cn(-c4ccc(C(F)(F)F)cc4)nc23)ccc1OCC(=O)O (racemic) [Example 10, (+/−)-2-Ethyl-4-{1-[2-(4-trifluoromethylphenyl)-2H-indazol-7-yl]ethylsulfanyl}phenoxyacetic Acid]",65 to 67 °C

row,SMILES,melting point
1,"Cc1cc(SC(C)c2cccc3cn(-c4ccc(C(F)(F)F)cc4)nc23)ccc1CCC(=O)O (racemic) [Example 9, (+/−)-3-(2-Methyl-4-{1-[2-(4-trifluoromethylphenyl)-2H-indazol-7-yl]ethylsulfanyl}phenyl)propionic Acid]",59 to 61 °C
2,"Cc1cc(SCc2ccc3nn(-c4ccc(C(F)(F)F)cc4)cc3c2)ccc1OC(C)(C)C(=O)O [Example 64, 2-Methyl-2-{2-methyl-4-[2-(4-trifluoromethylphenyl)-2H-indazol-5-ylmethylsulfanyl]phenoxy}propionic Acid]",143 to 145 °C
3,"Cc1cc(OC(C)c2ccc3nn(-c4ccc(C(F)(F)F)cc4)cc3c2)ccc1OC(C)(C)C(=O)O (racemic) [Example 66, (+/−)-2-Methyl-2-(2-methyl-4-{1-[2-(4-trifluoromethylphenyl)-2H-indazol-5-yl]ethoxy}phenoxy)propionic Acid]",129 to 131 °C
4,"Cc1cc(OC(C)c2cccc3cn(-c4ccc(C(F)(F)F)cc4)nc23)ccc1OC(C)(C)C(=O)O (racemic) [Example 40, (+/−)-2-Methyl-2-(2-methyl-4-{1-[2-(4-trifluoromethylphenyl)-2H-indazol-7-yl]ethoxy}phenoxy)propionic Acid]",139 to 141 °C
5,"CCc1cc(SCCc2cccc3cn(-c4ccc(C(F)(F)F)cc4)nc23)ccc1OCC(=O)O [Example 45, (2-Ethyl-4-{2-[2-(4-trifluoromethylphenyl)-2H-indazol-7-yl]ethylsulfanyl}phenoxy)acetic Acid]",115 to 117 °C
6,"Cc1cc(OCc2ccc3cn(-c4ccc(C(F)(F)F)cc4)nc3c2)ccc1CCC(=O)O [Example 24, 3-{2-Methyl-4-[2-(4-trifluoromethylphenyl)-2H-indazol-6-ylmethoxy]phenyl}propionic Acid]",181 to 183 °C
7,"CC(Oc1ccc(OC(C)(C)C(=O)O)cc1)c1cccc2cn(-c3ccc(C(F)(F)F)cc3)nc12 (racemic) [Example 44, (+/−)-2-Methyl-2-(4-{1-[2-(4-trifluoromethylphenyl)-2H-indazol-7-yl]ethoxy}phenoxy)propionic Acid]",130 to 132 °C
8,"CC(C)(Sc1ccc(OC(CCC(F)(F)F)c2cccc3c2cnn3-c2ccc(C(F)(F)F)cc2)cc1)C(=O)O (racemic) [Example 89, (+/−)-2-Methyl-2-(4-{4,4,4-trifluoro-1-[1-(4-trifluoromethylphenyl)-1H-indazol-4-yl]butoxy}phenylsulfanyl)propionic Acid]",> 260 °C
9,"Cc1cc(SCc2ccc3cn(-c4ccc(C(F)(F)F)cc4)nc3c2)ccc1CCC(=O)O [Example 20, 3-{2-Methyl-4-[2-(4-trifluoromethylphenyl)-2H-indazol-6-ylmethylsulfanyl]phenyl}propionic Acid]",130 to 132 °C
10,"Cc1cc(OC(c2ccccc2)c2cccc3c2cnn3-c2ccc(C(F)(F)F)cc2)ccc1OC(C)(C)C(=O)O (racemic) [Example 91, (+/−)-2-Methyl-2-(2-methyl-4-{phenyl-[1-(4-trifluoromethylphenyl)-1H-indazol-4-yl]methoxy}phenoxy)propionic Acid]",140 to 145 °C
11,"Cc1cc(OC(CCC(F)(F)F)c2cccc3c2cnn3-c2ccc(C(F)(F)F)cc2)ccc1OC(C)(C)C(=O)O (racemic) [Example 87, (+/−)-2-Methyl-2-(2-methyl-4-{4,4,4-trifluoro-1-[1-(4-trifluoromethylphenyl)-1H-indazol-4-yl]butoxy}phenoxy)propionic Acid]",218 to 222 °C
12,"Cc1cc(OC(C)c2cccc3c2cnn3-c2ccc(C(F)(F)F)cc2)ccc1OC(C)(C)C(=O)O (racemic) [Example 82, (+/−)-2-Methyl-2-(2-methyl-4-{1-[1-(4-trifluoromethylphenyl)-1H-indazol-4-yl]ethoxy}phenoxy)propionic Acid]",82 to 85 °C
13,"CC(Sc1ccc(OC(C)(C)C(=O)O)cc1)c1ccc2cn(-c3ccc(C(F)(F)F)cc3)nc2c1 (racemic) [Example 59, (+/−)-2-Methyl-2-(4-{1-[2-(4-trifluoromethylphenyl)-2H-indazol-6-yl]ethylsulfanyl}phenoxy)propionic Acid]",130 to 132 °C
14,"Cc1cc(SCc2cccc3cn(-c4ccc(C(F)(F)F)cc4)nc23)ccc1OC(C)(C)C(=O)O [Example 35, 2-Methyl-2-{2-methyl-4-[2-(4-trifluoromethylphenyl)-2H-indazol-7-ylmethylsulfanyl]phenoxy}propionic Acid]",135 to 137 °C
15,"CC(C)(Oc1ccc(OCCc2cccc3cn(-c4ccc(C(F)(F)F)cc4)nc23)cc1)C(=O)O [Example 47, 2-Methyl-2-(4-{2-[2-(4-trifluoromethylphenyl)-2H-indazol-7-yl]ethoxy}phenoxy)propionic Acid]",122 to 124 °C
16,"Cc1cc(SCCc2cccc3cn(-c4ccc(C(F)(F)F)cc4)nc23)ccc1OC(C)(C)C(=O)O [Example 49, 2-Methyl-2-(2-methyl-4-{2-[2-(4-trifluoromethylphenyl)-2H-indazol-7-yl]ethylsulfanyl}phenoxy)propionic Acid]",141 to 143 °C
